The values that follow come from ChEMBL document CHEMBL1201862, “PubChem BioAssay data set” (2004).

Active and inactive are the calls of the source. For most assays here, no stated cut-off is given here; in the data, actives have a measured EC50 and inactives only a lower limit.

A short description of assay [1]: reduction of Shn3 3'UTR-driven luciferase in osteoblasts – cell-based, Clone20 osteoblasts, firefly luciferase, cherry-picked, dose response (AID 624132).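 Further: firefly luciferase luminescence from reporter carrying the Shn3 3'UTR in osteoblasts.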 Format: functional.
Assay [2] in a line: loss of viability in HepG2 cells – cell-based, CellTiter-Glo, cherry-picked, cytotoxicity control for Shn3 inhibitor project, dose response (AID 624134). In kind it is functional.
A short description of assay [3]: non-specific 3'UTR reporter inhibition in Clone20-Shn3RL – cell-based, Renilla luciferase, cherry-picked, counter-screen for Shn3 inhibitor project, dose response (AID 624133). In kind it is functional. For orientation: The purpose of a counterscreen is to sort out artefacts and off-target activity.
Assay [4] addresses Luciferin 4-monooxygenase (Photinus pyralis, UniProt P08659). The assay can be described thus: inhibition of purified Photinus pyralis luciferase – biochemical, luminescence, dose response (AID 1891).
The nature of assay [5]: Luminescence Cell-Based Dose Confirmation HTS to Identify Inhibitors of Platelet Dense Granule Release. [Related pubchem assays: 1663 (Primary HTS), 1678 (Summary of Project)]. Format: functional.
A short description of assay [6]: luciferase reporter signal suppression in cells – H4 neuroglioma cells, luminescence, dose response (AID 1990). Format: functional, cell-based.
A short description of assay [7]: Luminescence Cell-Based Dose Response HTS to Identify Inhibitors of 5'UTR Stem-Loop Driven Prion Protein mRNA Translation in H4 Neuroglioblastoma Cells. [Related pubchem assays: 1827 (Project Summary), 1813 (Primary HTS)]. In kind it is functional.
A short description of assay [8]: alpha-synuclein stem-loop luciferase translation blockers – H4 neuroglioma cells, luminescence, confirmation (AID 1988). Format: functional, cell-based.
Assay [9] can be described thus: Trypanosoma cruzi growth suppression in host cells – NIH3T3 host cells, beta-gal luminescence, confirmation (AID 2044).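 Further: intracellular parasites grown in NIH/3T3 mouse fibroblasts as host cells; luminescent beta-galactosidase reporter signal from transgenic T. cruzi replicating inside host cells; inhibitors lower the luminescence signal.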 In kind it is functional, cell-based.
Assay [10] is described as follows: NIH3T3 cell viability loss – ATP luminescence, mouse fibroblasts, counter-screen, dose response (AID 2010).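 Further: cells exposed to compound for about 90 hours before reading.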 In kind it is functional, cell-based.
Assay [11] deals with T1, Replicative DNA helicase DnaB (Mycobacterium tuberculosis, UniProt P9WMR3).
T1 sequence (P9WMR3 whole entry): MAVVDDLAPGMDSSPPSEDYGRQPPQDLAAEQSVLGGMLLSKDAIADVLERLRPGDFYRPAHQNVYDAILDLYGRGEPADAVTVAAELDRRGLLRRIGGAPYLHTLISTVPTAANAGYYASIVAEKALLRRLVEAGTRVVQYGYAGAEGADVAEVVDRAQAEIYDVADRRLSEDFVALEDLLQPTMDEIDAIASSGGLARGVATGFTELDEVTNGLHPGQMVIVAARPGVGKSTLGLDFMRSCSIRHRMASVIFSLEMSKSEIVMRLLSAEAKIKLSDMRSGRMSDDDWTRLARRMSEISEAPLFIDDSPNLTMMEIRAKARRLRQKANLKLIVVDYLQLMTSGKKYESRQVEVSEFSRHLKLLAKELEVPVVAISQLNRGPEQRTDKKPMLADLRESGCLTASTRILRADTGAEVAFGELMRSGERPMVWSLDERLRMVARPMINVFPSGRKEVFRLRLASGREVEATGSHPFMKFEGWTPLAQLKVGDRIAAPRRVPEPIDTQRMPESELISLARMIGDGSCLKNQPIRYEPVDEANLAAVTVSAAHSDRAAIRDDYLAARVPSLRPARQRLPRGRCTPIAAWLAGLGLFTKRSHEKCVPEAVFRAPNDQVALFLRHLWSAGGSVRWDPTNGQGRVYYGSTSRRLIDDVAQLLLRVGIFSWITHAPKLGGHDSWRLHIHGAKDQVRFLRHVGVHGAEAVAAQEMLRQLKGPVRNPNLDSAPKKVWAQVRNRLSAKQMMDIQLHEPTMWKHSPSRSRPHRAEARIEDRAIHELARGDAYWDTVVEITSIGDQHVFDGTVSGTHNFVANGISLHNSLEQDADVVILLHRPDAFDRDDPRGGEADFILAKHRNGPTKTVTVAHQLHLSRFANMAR
The assay can be described thus: DnaB intein splicing inhibitors, dose response, biochemical, cell-free fluorescence (AID 449749). Format: functional.

For another assay, the target named is T2, Protein RecA (Mycobacterium tuberculosis, UniProt P9WHJ3).
T2 sequence (P9WHJ3 whole entry): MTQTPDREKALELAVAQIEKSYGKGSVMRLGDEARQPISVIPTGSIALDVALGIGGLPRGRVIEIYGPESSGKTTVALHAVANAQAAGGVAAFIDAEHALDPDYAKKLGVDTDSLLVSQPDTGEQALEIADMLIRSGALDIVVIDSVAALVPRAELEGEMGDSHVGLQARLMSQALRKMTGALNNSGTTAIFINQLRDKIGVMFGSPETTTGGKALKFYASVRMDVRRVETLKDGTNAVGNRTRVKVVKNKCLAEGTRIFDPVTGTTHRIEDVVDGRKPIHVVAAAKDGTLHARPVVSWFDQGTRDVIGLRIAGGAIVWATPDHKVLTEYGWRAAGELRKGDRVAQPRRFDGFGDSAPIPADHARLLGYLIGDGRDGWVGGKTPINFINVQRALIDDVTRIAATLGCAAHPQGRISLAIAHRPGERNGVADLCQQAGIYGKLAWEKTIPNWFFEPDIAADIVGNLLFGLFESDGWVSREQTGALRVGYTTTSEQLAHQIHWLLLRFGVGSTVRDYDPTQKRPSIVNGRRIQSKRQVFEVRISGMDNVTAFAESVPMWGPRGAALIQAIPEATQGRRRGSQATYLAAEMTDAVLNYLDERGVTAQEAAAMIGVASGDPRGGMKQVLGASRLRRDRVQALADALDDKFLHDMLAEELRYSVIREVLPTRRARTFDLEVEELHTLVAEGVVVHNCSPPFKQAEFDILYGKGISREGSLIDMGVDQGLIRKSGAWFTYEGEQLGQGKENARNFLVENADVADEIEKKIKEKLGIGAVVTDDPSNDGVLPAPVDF
Nature of the assay: Fluorescence Cell-Free Homogeneous Dose Retest to Identify Inhibitors of RecA-Intein Splicing Activity. [Related pubchem assays (depositor defined):AID2097, AID2223, AID489010, AID492950]. Format: functional.

A short description of assay [12]: viability of uninfected HEp-2 cells – cell-based, HTS, cytotoxicity control for RSV inhibitor project, dose response (AID 2410). In kind it is functional. Conditions: human respiratory syncytial virus.
Assay [13] in a line: cells. Format: functional, cell-based.
Assay [14] can be described thus: cells. Format: functional, cell-based. This is another data set of the same source.

Sequence of Luciferin 4-monooxygenase (P08659 whole entry): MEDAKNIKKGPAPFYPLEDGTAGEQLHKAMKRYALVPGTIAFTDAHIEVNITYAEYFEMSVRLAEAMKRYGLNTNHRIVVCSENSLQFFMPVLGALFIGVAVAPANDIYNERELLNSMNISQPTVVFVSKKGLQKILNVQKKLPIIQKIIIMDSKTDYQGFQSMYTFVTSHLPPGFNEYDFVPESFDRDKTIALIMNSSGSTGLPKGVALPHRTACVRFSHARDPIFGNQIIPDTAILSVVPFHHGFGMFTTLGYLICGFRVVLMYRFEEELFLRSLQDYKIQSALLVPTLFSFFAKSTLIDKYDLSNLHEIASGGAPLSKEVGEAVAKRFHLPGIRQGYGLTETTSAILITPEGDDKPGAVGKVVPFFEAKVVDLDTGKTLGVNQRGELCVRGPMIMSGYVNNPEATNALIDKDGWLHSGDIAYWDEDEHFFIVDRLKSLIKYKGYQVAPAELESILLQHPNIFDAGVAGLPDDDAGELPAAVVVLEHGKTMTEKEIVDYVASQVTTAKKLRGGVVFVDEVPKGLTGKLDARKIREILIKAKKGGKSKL

Take `NC(=O)CC(NC(=O)c1ccc(Br)cc1)c1ccc(N2CCC(Br)CC2)c([N+](=O)[O-])c1` (stereo not drawn): the half-maximal activity concentration (AC50) (as a rule, the concentration giving half of the maximal activity seen) is 4.19 µM (active) in assay [1], 62.8 µM (active) in assay [2] and 17.5 µM (active) in assay [3].

As for `CN(C(=O)c1cc(S(=O)(=O)N2CCc3ccccc32)cn1C)C1CCCCC1`, the EC50 in assay [4] and in assay [5] was > 112 µM (not active) each time.

Regarding `CCOC(=O)C1=C(CN2CCN(C(=O)c3ccco3)CC2)NC(=O)NC1c1ccccc1` (stereo not drawn), the figures for the EC50 in assay [6], in assay [7] and in [8] were 42.2 µM (active), > 120 µM (not active) and > 120 µM (not active), respectively.

Regarding `Cc1ccc(C#CC[N+](C)(C)CC#Cc2ccccc2)cc1`, the half-maximal effective concentration (EC50) – broadly, the concentration that produces a half-maximal response – is > 120 µM (not active) in assay [6]; > 120 µM (not active) in [7]; > 120 µM (not active) in [8]; 1.92 µM (active) in assay [9]; > 60 µM (not active) in assay [10].

As for `CCc1cccc(NC2c3ccccc3C(=O)N2c2cccnc2)c1` (stereo not drawn), the 50% effective concentration (EC50) in assay [4] and in assay [5] was > 112 µM (not active) each time.

`N=C(N)SCc1cn(-c2ccccc2)nc1-c1ccc(Br)cc1`: the concentration for a half-maximal effect (EC50) in [9] is 1.03 µM (active); in [10], 11.2 µM (active); at Protein RecA, 11 µM (active). The half-maximal activity concentration (AC50) in assay [11] is 8.68 µM (active).

With `Cc1cnc(C)c(N2CCN(Cc3nc(-c4ccccc4)no3)CC2)n1`, the EC50 in assay [4] and in assay [5] was > 112 µM (not active) throughout.

For `CC(C)CC(=O)Nc1cccc(-c2csc(-c3ccccc3)n2)c1`, the cytotoxic concentration (CC50) (in general, the concentration at which the toxic effect on the cells reaches its halfway point) in assay [12] is 17.9 µM (active).

As to `Cc1ccc2c(CSc3nc4ccccc4c(=O)n3CCCO)cc(=O)oc2c1C`, in [12], the CC50 was 30.5 µM (active).

Regarding `CCOC(=O)CSc1nc(=O)c(NCC(=O)OC)n[nH]1`, the half-maximal activity concentration (AC50) in assay [11] was 12 µM (active). For the same molecule, the EC50 on Protein RecA was 5.87 µM (active).

In the case of `Cc1c(N=C2N=C(NC(=O)c3cccs3)c3ccccc32)c(=O)n(-c2ccccc2)n1C`, in assay [12], the CC50 is 18.7 µM (active).

For the molecule `O=C1CSCN1c1ccc(Cl)cc1`, the EC50 in the assay “cells [13]” and in “cells [14]” was > 350 µM (not active) each time.

Take `O=C(O)C1C2CCC(C2)C1C(=O)Nc1ccccc1` (stereo not drawn): the EC50 in assay [4] and in assay [5] was > 112 µM (not active) throughout.

On to `CC1CCCC(C)N1C(=O)COC(=O)CNC(=O)c1sc2ccccc2c1Cl` (stereo not drawn), for which the EC50 in assay [4] and in assay [5] was > 112 µM (not active) each time.

For `CCOC(=O)CNC(=O)CSc1nnc(Cn2cnc3ccccc32)n1C`, the half-maximal effective concentration (EC50) in “cells [13]” and in “cells [14]” was > 350 µM (not active) each time.

Consider `C1CCC2(CC1)C1=C(CCCC1)Nc1nnnn12`, for which the EC50 in “cells [13]” and in “cells [14]” was > 350 µM (not active) throughout.

For `COCCNC(=O)Nc1ccc2nc(-c3cccs3)c(-c3cccs3)nc2c1`, the CC50 in assay [12] was 33.1 µM (active).

Consider `Cc1cc(C)n(-c2nc3ccccc3c(=O)n2OCC(=O)OCc2ccccc2)n1`, for which the concentration for a half-maximal effect (EC50) in [6] is 19.3 µM (active); in assay [7], 17.6 µM (active); in assay [8], > 120 µM (not active).

Regarding `O=C(N1CCN(Cc2ccccc2)CC1)C12CC3CC(CC(C3)C1)C2`, the EC50 in assay [4] and in [5] was > 112 µM (not active) each time.

As for `C=CCN(c1ccccc1)S(=O)(=O)c1cccc(C(=O)Nc2nc3ccccc3[nH]2)c1`, the values for the concentration at half-maximal activity (AC50) in assay [1], in assay [2] and in assay [3] were 10.1 µM (active), 49.7 µM (active) and 27.8 µM (active), respectively.

`Cc1ccc(CN=C(N)Nc2nc(C)cc(C)n2)cc1`: the concentration giving a half-maximal response (EC50) in [6] is > 120 µM (not active); in [7] it was 9.36 µM (active); in assay [8], 7.78 µM (active).

`O=C(c1ccco1)c1cn(CC(=O)N2CCCc3ccccc32)c2ccccc12`: the EC50 in [4] and in [5] was > 112 µM (not active) throughout.

Turning to `Cc1ccc(CNC(=O)C2CCN(S(=O)(=O)c3ccc4c(c3)CC(C)N4C(=O)C3CCC3)CC2)o1` (stereo not drawn), the EC50 in [6] was 13 µM (active); in [7] it was > 120 µM (not active); in [8], 12.3 µM (active).

Regarding `O=C(CN(Cc1ccccc1Cl)C(=O)c1ccc(CN2CCOCC2)o1)NCc1ccccc1`, the EC50 is > 112 µM (not active) in assay [4] and 62.6 µM (active) in [5].

`CC(=O)c1ccc(NC2CC(O)C(O)CO2)cc1` (stereo not drawn): the 50% effective concentration (EC50) is > 120 µM (not active) in assay [6], > 120 µM (not active) in assay [7] and 16.1 µM (active) in [8].

For `Nc1cccc(-c2nc3ccc(N)cc3s2)c1`, the values for the EC50 in [4] and in assay [5] were 2.3 µM (active) and < 0.701 µM (active), respectively.

Turning to `CCOC(=O)COc1cccc2c(=O)n(CC(=O)N3CCN(C(=O)OCC)CC3)ccc12`, the concentration giving a half-maximal response (EC50) in [4] and in [5] was > 112 µM (not active) each time.

With `CC(C)c1ccc(NC(=O)C2CCCN(S(=O)(=O)c3ccc4c(c3)C(C)(C)C(=O)N4C)C2)cc1` (stereo not drawn), the 50% cytotoxic concentration (CC50) in [12] is 17.6 µM (active).

In the case of `Cc1ccc2c(c1)-c1c(ssc1=S)C(C)(C)N2C(=O)CSc1nncn1C`, the EC50 in assay [6] was 46.1 µM (active); in [7] it was > 120 µM (not active); in assay [8] it was > 120 µM (not active); at Protein RecA it was 9.47 µM (active). Further, the AC50 in assay [11] is 6.63 µM (active).

`COc1ccc(/C=C2/C(=O)N(c3ccccc3)N=C2C)cc1`: the half-maximal activity concentration (AC50) in assay [11] is 4.44 µM (active). Further, on Protein RecA, the EC50 was 1.7 µM (active).

For `CCOC(=O)N1CCC(/N=c2/c(-c3ccccc3)c(O)c2=O)CC1`, the 50% effective concentration (EC50) in the assay “cells [13]” and in “cells [14]” was > 350 µM (not active) in each case.

As to `C/C(CC(=O)Nc1ccc(F)cc1F)=N\NC(=O)C(=O)N1CCCCC1`, the concentration at half-maximal activity (AC50) in assay [11] was 5 µM (active). The concentration giving a half-maximal response (EC50) at Protein RecA is 1.8 µM (active).

For `O=C(N/N=C/c1ccccn1)c1ccc(Br)cc1`, the EC50 was 15.2 µM (active) in “cells [13]” and > 350 µM (not active) in the assay “cells [14]”.

On to `CCCCCC(=O)O[C@]1(C(C)=O)CC[C@H]2[C@@H]3CCC4=CC(=O)CC[C@]4(C)[C@H]3CC[C@@]21C` [HYDROXYPROGESTERONE CAPROATE], for which the AC50 in assay [11] is 11.9 µM (active). At Protein RecA, the 50% effective concentration (EC50) is 4.88 µM (active).
